Source: patent US20210330616A1, “AMELIORATING AGENT FOR OBESITY-RELATED METABOLIC DISEASE” (METABOLIC AND OBESE RESEARCH SCIENCE CORPORATION, priority 2018, published 2021)
“And” between values parts separate entries of the source, which are not always exact repeats. Equal entries are not always repeated. Structures can show the parent of a compound that is named as a salt. Where two headings read alike, the source gives them in different places.

What was measured:
Helz2 = target: T1, Helz2 (Homo sapiens, UniProt Q9BYK8); assay: High-throughput screening through surface plasmon resonance for low-molecular-weight compounds that bind to Helz2; assay type: binding; conditions: purified Helz2 protein
T1 construct: 3xFLAG (N); made in house; host or cells: HEK293 cells
From the text: 1. High-Throughput Screening for Low-Molecular-Weight Compounds that Bind to Helz2
HEK293 cells were allowed to express Helz2 by using a Helz2 expression vector (p3×FLAG-CMV10-pDIP2), and Helz2 protein was purified.

[1] = tested on: obese mice fed high-fat diet; assay: Daily variation of body weight with oral administration to obese mice; assay type: in vivo, mice (C57BL6J); design: key to Body weight: ↓: lowering or mitigating action; ↑: increasing action; →: no change
Experimental: (§1) Six-week-old male mice (C57BL6J) were grown with high-fat diet (fat content: 60 kcal %, Research diets, Inc.) or low-fat diet (fat content: 10.5 kcal %, CLEA Japan, Inc.) for 18 weeks. Thereafter, obese mice fed high-fat diet were separated into two groups, and 0.3 mL of physiological saline was orally administered to one group through a gastric tube for mouse, and 0.3 mL of a solution of a low-molecular-weight compound dissolved in physiological saline was orally administered to the other group through the gastric tube for mouse. Oral administration was performed every day over 14 days during 30 minutes before turning lights off at 18:00 (turning lights on at 6:00, 12-hour light-dark cycle, room temperature: 22° C.). […] Thereafter, the organs were stored at −80° C. Hepatic Leprb expression was measured by means of the qRT-PCR.
4. Daily Variation of Body Weight with Oral Administration of Low-Molecular-Weight Compound
The body weight of each mouse with administration of physiological saline or administration of a low-molecular-weight compound was measured every day before each administration at 18:00.

[2] = tested on: obese mice fed high-fat diet; assay: Insulin resistance and blood glucose level after oral administration to obese mice; assay type: in vivo, mice (C57BL6J); design: key to Insulin resistance / Hyperglycemia: ↓: lowering or mitigating action; ↑: increasing action; →: no change
Experimental: as §1
6. Change in Insulin Resistance and Blood Glucose Level after Oral Administration of Low-Molecular-Weight Compound
Fasting blood glucose and blood insulin concentration after administration of physiological saline or administration of a low-molecular-weight compound were measured respectively by using an enzyme-electrode method with glucose oxidase and a mouse insulin ELISA kit (Morinaga Institute of Biological Science, Inc.). The insulin resistance of each mouse was represented as Homeostatic model assessment of insulin resistance (HOMA-IR) [insulin (mU/L)×blood glucose (mM)÷22.5] index (×100) (Brit J Nutr 101: 701-708, 2009).

[3] = tested on: obese mice fed high-fat diet; assay: Hepatic lipid content after oral administration to obese mice (LipoSEARCH, BODIPY staining); assay type: in vivo, mice (C57BL6J); design: key to Fatty liver: ↓: lowering or mitigating action; ↑: increasing action; →: no change
Experimental: as §1
8. Change in Hepatic Lipid Content after Oral Administration of Low-Molecular-Weight Compound
Hepatic Tg and Chol contents after administration of physiological saline or administration of a low-molecular-weight compound were measured by using a LipoSEARCH method (Skylight Biotech, Inc.).
To visualize and quantify the amount of fat accumulated in hepatocyte per cell and change in shape of fat, fat globule fluorescent staining with BODIPY (excitation light: 493 nm; fluorescence: 503 nm) was performed. Staining-positive area and size of staining-positive cell were measured in 10 views per mouse hepatocyte in each group. ANOVA was used for intergroup significance test in FIGS. 8-D and 8-E (****. P<0.001).

[4] = tested on: obese mice fed high-fat diet; assay: Blood lipid concentration after oral administration to obese mice; assay type: in vivo, mice (C57BL6J); design: key to Blood LDLc / Blood HDLc: ↓: lowering or mitigating action; ↑: increasing action; →: no change
Experimental: as §1
10. Change in Blood Lipid Concentration after Oral Administration of Low-Molecular-Weight Compound
Fasting blood CM-Tg, VLDL-Tg, LDLc, and HDLc concentrations after administration of physiological saline or administration of a low-molecular-weight compound were measured by using the LipoSEARCH method.

α2-adrenaline receptor = conditions: cited from earlier work
[5] = in vivo; cited from earlier work
[6] = design: key to Body weight / Insulin resistance / Hyperglycemia / Hypertension / Blood LDLc / Blood HDLc / Fatty liver: ↓: lowering or mitigating action; ↑: increasing action; →: no change; conditions: cited from earlier work
[7] = tested on: Leprb gene expression in HepG2 cells; assay: Leprb gene expression in cultured hepatocyte HepG2 (qRT-PCR); assay type: cell-based; conditions: HepG2, 10^−9 to 10^−7M, 24 to 48 hours
Experimental: Identification of Low-Molecular-Weight Compound that Promotes Leprb Expression in Cultured Hepatocytes
Because Leprb gene expression is promoted on lowering of the action of Helz2 through binding of a low-molecular-weight compound, the low-molecular-weight compounds that bound to Helz2 were screened with use of increase of Leprb gene expression in cultured hepatocyte as an index. […] The hepatocytes were cultured at 37° C. for 24 to 48 hours, and Leprb gene expression therein was measured through a quantitative real time polymerase chain reaction (qRT-PCR, TaqMan Gene expression assays using LEPRB probes) method.

Hepatic Leprb expression = Hepatic Leprb expression with oral administration to obese mice; assay type: in vivo, mice (C57BL6J); conditions: 0.32 mg/kg/day oral, 14 days, vs physiological saline
Experimental: 3. Hepatic Leprb Expression with Oral Administration of Low-Molecular-Weight Compound
as §1

[8] = tested on: obese mice fed high-fat diet; assay: Blood leptin concentration and food intake after oral administration to obese mice; assay type: in vivo, mice (C57BL6J)
Experimental: as §1
5. Change in Blood Leptin Concentration and Food Intake after Oral Administration of Low-Molecular-Weight Compound
Blood leptin concentration after administration of physiological saline or administration of a low-molecular-weight compound were measured by using a mouse leptin ELISA kit (Morinaga Institute of Biological Science, Inc.). The daily food intake of each mouse was measured every day before each administration at 18:00.

[9] = tested on: obese mice fed high-fat diet; assay: Pancreatic weight and pancreatic β-cell function after oral administration to obese mice; assay type: in vivo, mice (C57BL6J); conditions: 14-day oral administration, vs physiological saline
Experimental: as §1
7. Change in Pancreatic Weight and Pancreatic β-Cell Function after Oral Administration of Low-Molecular-Weight Compound
Pancreatic weight after administration of physiological saline or administration of a low-molecular-weight compound was measured. The pancreatic β-cell function of each mouse was represented by Homeostatic model assessment-β cell function (HOMA-β) {[insulin (mU/L)×20]÷[blood glucose (mM)−3.5]} index (×100) (Brit J Nutr 101:701-708, 2009).

[10] = tested on: obese mice fed high-fat diet; assay: Weights of liver and heart after oral administration to obese mice; assay type: in vivo, mice (C57BL6J); conditions: 14-day oral administration, vs physiological saline
Experimental: as §1
9. Change in Weights of Liver and Heart after Oral Administration of Low-Molecular-Weight Compound
The weights of the liver and heart after administration of physiological saline or administration of a low-molecular-weight compound were measured.

[11] = tested on: obese mice fed high-fat diet; assay: Weights of spleen and kidney after oral administration to obese mice; assay type: in vivo, mice (C57BL6J); conditions: 14-day oral administration, vs physiological saline
Experimental: as §1
11. Change in Weights of Spleen and Kidney after Oral Administration of Low-Molecular-Weight Compound
The weights of the spleen and kidney after administration of physiological saline or administration of a low-molecular-weight compound were measured.

[12] = tested on: obese mice fed high-fat diet; assay: Weights of fat and muscle after oral administration to obese mice; assay type: in vivo, mice (C57BL6J); conditions: 14-day oral administration
Experimental: as §1
12. Change in Weights of Fat and Muscle after Oral Administration of Low-Molecular-Weight Compound
The amounts of visceral fat, which evokes metabolic disorder, and muscle (right side) after administration of physiological saline or administration of a low-molecular-weight compound were measured.

[13] = surface plasmon resonance, read-out: KD value for binding to and dissociating from Helz2
[14] = Table 1, summary of obese mouse results
[15] = KD value for binding to and dissociating from Helz2, surface plasmon resonance
[16] = obese mice, 14-day oral administration, vs physiological saline
[17] = obese mice, 14-day oral administration, fasting, vs physiological saline
[18] = obese mice, fatty liver caused by high-fat diet

T1 sequence (Q9BYK8 whole entry): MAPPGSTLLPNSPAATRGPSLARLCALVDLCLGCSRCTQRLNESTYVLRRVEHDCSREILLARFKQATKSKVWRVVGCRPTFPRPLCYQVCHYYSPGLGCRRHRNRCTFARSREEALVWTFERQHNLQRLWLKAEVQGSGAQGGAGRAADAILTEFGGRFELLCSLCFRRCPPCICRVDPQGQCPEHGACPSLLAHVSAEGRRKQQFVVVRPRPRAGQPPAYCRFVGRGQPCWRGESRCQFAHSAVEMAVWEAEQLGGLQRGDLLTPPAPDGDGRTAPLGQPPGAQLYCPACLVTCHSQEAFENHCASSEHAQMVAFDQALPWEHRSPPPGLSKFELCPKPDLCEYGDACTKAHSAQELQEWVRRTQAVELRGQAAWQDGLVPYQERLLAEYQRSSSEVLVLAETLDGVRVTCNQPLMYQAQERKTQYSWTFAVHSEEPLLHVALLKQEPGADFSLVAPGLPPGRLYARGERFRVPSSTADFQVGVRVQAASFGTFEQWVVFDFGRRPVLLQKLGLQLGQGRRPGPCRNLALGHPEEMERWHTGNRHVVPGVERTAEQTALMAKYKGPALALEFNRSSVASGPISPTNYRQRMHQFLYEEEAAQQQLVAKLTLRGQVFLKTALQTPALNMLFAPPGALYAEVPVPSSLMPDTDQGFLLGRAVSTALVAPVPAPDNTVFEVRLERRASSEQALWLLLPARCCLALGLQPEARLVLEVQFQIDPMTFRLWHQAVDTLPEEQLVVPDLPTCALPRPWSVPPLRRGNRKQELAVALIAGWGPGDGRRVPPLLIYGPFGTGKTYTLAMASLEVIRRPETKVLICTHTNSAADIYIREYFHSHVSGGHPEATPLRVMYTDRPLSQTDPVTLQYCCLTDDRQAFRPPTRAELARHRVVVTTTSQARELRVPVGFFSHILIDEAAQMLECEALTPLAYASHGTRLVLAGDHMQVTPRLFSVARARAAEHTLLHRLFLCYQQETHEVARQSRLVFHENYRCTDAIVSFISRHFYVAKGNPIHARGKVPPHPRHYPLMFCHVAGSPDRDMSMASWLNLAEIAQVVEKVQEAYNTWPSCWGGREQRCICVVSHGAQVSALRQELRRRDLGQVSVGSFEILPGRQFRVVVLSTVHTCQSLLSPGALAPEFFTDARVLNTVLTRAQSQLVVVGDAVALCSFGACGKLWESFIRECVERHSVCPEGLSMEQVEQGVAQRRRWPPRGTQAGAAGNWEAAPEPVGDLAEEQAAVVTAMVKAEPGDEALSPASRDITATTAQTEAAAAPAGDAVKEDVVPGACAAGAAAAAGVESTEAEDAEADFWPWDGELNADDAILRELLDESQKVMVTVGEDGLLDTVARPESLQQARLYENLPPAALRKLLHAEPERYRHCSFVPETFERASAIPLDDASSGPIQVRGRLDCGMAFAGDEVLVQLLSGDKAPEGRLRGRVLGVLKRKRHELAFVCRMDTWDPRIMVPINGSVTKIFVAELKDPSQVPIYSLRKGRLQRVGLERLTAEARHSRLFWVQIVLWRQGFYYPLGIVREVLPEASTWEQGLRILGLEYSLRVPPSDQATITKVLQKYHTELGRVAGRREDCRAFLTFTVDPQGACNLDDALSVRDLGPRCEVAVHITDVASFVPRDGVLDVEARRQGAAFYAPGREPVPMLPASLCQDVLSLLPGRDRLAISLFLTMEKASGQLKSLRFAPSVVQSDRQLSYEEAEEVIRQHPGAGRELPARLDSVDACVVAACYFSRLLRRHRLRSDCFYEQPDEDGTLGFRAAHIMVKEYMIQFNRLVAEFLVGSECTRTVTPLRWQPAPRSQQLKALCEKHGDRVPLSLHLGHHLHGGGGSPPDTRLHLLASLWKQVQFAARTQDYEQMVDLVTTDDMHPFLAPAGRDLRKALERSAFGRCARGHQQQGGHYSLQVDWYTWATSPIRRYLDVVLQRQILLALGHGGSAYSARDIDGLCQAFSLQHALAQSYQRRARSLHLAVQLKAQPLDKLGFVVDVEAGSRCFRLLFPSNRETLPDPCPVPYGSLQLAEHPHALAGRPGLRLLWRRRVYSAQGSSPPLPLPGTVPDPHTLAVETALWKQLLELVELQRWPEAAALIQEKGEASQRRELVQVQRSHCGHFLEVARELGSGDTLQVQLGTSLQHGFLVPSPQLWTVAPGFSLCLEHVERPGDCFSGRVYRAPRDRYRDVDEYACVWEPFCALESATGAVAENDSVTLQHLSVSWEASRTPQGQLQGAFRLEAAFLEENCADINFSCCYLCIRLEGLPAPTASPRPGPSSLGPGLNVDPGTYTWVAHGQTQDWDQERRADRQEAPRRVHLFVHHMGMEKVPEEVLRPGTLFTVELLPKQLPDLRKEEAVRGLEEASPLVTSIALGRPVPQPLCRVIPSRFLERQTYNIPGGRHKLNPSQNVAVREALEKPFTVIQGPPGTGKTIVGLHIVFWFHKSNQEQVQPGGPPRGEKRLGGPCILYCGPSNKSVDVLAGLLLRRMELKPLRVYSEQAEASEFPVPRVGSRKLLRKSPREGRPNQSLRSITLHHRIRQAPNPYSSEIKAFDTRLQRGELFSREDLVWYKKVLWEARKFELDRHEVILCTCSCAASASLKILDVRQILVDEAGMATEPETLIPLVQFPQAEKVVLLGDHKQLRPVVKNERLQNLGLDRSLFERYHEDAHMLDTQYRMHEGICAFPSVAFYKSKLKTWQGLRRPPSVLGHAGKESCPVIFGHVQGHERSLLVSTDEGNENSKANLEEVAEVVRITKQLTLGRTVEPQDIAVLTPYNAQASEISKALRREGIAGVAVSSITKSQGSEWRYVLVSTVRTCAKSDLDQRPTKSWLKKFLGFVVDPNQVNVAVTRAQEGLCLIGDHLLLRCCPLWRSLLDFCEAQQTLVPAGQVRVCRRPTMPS

CC(NCCc1ccc(O)cc1)C(O)c1ccc(O)cc1 (centres unmarked) [ritodrine hydrochloride]
Kd (Helz2; [13]): 1 to 490 nM

NC(N)=N/N=C/c1c(Cl)cccc1Cl [guanabenz, 2-{[(2,6-dichlorophenyl)methylidene]amino}guanidine]
Body weight [1, 14]: ↓ | anti-obesity action ([1]; obese mouse results): exhibits anti-obesity action without reduction of appetite | Hyperglycemia [2, 14]: ↓ | Insulin resistance [2, 14]: ↓ | action on insulin resistance ([2]; obese mouse results): ameliorates insulin resistance | hyperglycemia-mitigating action ([2]; obese mouse results): exhibits hyperglycemia-mitigating action | Fatty liver [3, 14]: ↓ | anti-fatty liver action ([3]; obese mouse results): with anti-fatty liver action | Blood HDLc [4, 14]: → | Blood LDLc [4, 14]: ↓ | action on high LDL cholesterol ([4]; obese mouse results): exhibits reducing action for high LDL cholesterol | Ki (α2-adrenaline receptor): 7 nM | absorptivity from a gastrointestinal tract [5]: approximately 75% | half-life in blood [5]: 4.3 to 6.4 h | site of metabolism [5]: mostly metabolized in the liver | Hypertension ([6]; Table 1, *based on clinical data): ↓*

C[C@@H](c1ncncc1F)[C@](O)(Cn1cncn1)c1ccc(F)cc1F [voriconazole]
Kd (Helz2; [13]): 1 to 490 nM

CN(C)CCC(c1ccc(Br)cc1)c1ccccn1 (centres unmarked) [brompheniramine maleate]
Kd (Helz2; [13]): 1 to 490 nM

NCCCNCCSP(=O)(O)O [amifostine trihydrate]
Kd (Helz2; [13]): 1 to 490 nM

CCN(C)C(=O)Oc1cccc([C@H](C)N(C)C)c1 [rivastigmine tartrate]
Kd (Helz2; [15]): 1 to 490 nM

Clc1cccc(Cl)c1N=C1NCCN1 [clonidine hydrochloride]
Kd (Helz2; [13]): ≥ 1000 nM

N=C(N)N/N=C/c1c(Cl)cccc1Cl [guanabenz acetate]
Kd (Helz2; [13]): 1 to 490 nM and 2.3 nM | Leprb expression in cultured hepatocyte (index of lowering of Helz2 action) [7]: Concentration-dependent increase in Leprb expression | Hepatic Leprb gene expression (Hepatic Leprb expression): significantly increased | body weight gain ([1]; obese mice, 0.32 mg/kg/day oral, after day 4 from the beginning of administration, vs physiological saline): significantly reduced | Body weight ([1]; obese mice, 0.32 mg/kg/day oral, on day 8 from the beginning of administration, maintained during administration): significant body weight reduction | blood leptin concentration relative to non-obese mice ([8]; obese mice after administration, vs non-obese mice (2.3±0.5 ng/mL)): ≥ 10 fold | blood leptin concentration [8, 16]: rather slightly decreased | total food intake accumulation [8, 16]: no significant change | daily food intake ([8]; obese mice, except on day 3 from the beginning of administration, vs physiological saline): no change in daily food intake | blood glucose levels [2, 17]: lowered the level of hyperglycemia to that in non-obese mice | blood insulin levels [2, 17]: mitigated hyperinsulinemia | HOMA-IR index (insulin resistance index) [2, 16]: suppressed the HOMA-IR index | HOMA-β index (pancreatic β-cell function) [9]: not changed | pancreatic weight [9]: not changed | hepatic Chol content [3, 16]: significantly reduced | hepatic Tg content [3, 16]: significantly reduced | fat globule area (BODIPY staining-positive area in hepatocyte) [3, 18]: significantly decreased | fat globule cell size (size of BODIPY staining-positive cell) [3, 18]: significantly decreased | weight of heart [10]: significantly decreased | weight of liver [10]: significantly decreased | blood CM-Tg concentration [4, 17]: not changed | blood HDLc concentration [4, 17]: not changed | blood LDLc concentration [4, 17]: significantly decreased | blood VLDL-Tg concentration [4, 17]: not changed | weight of kidney [11]: No change | weight of spleen [11]: No change | muscle weight of gastrocnemius muscle [12]: not affected | muscle weight of plantaris muscle [12]: not affected | muscle weight of soleus muscle [12]: not affected | amount of intestinal membrane fat ([12]; vs physiological saline): not changed | amount of peritesticular fat ([12]; vs physiological saline): not changed | amount of total visceral fat ([12]; vs physiological saline): not changed

CN(C)C(=N)N=C(N)N [Metformin]
Blood HDLc ([6]; Table 1, comparator drugs): → | Blood LDLc ([6]; Table 1, comparator drugs): → | Body weight ([6]; Table 1, comparator drugs): → | Fatty liver ([6]; Table 1, comparator drugs): → | Hyperglycemia ([6]; Table 1, comparator drugs): ↓ | Hypertension ([6]; Table 1, comparator drugs): → | Insulin resistance ([6]; Table 1, comparator drugs): ↓ | action on insulin resistance ([6]; comparison, comparator drugs): ameliorate insulin resistance | anti-fatty liver action ([6]; comparison, comparator drugs): does not exhibit anti-fatty liver action | anti-obesity action ([6]; comparison, comparator drugs): does not exhibit anti-obesity action | hyperglycemia-mitigating action ([6]; comparison, comparator drugs): exhibits hyperglycemia-mitigating action

CC1(C)[C@H](C(=O)O)N2C(=O)C[C@H]2S1(=O)=O [sulbactam]
Kd (Helz2; [13]): 1 to 490 nM

COC(=O)Nc1nc2ccc(Sc3ccccc3)cc2[nH]1 [fenbendazole]
Kd (Helz2; [13]): 1 to 490 nM

CC(C)CC(N(C)C)C1(c2ccc(Cl)cc2)CCC1 (centres unmarked) [sibutramine hydrochloride]
Kd (Helz2; [15]): 1 to 490 nM

Cc1nc2ccccn2c(=O)c1CCN1CCC(C(=O)c2ccc(F)cc2)CC1 [pirenperone]
Kd (Helz2; [13]): 1 to 490 nM

CN(C)C(=O)C(CCN1CCC(O)(c2ccc(Cl)cc2)CC1)(c1ccccc1)c1ccccc1 [loperamide hydrochloride]
Kd (Helz2; [15]): 1 to 490 nM

CC(C)(C)NCC(O)c1ccc(O)c(CO)c1 (centres unmarked) [salbutamol]
Kd (Helz2; [13]): 1 to 490 nM and 220 nM
